We go through 28 compounds from US20230234917A1, “ASPARAGINE DERIVATIVES AND METHODS OF USING SAME” (priority 2020, published 2023).

The target in experiment [1] is T1, ClbP (Escherichia coli, UniProt Q0P7K6). Nature of the experiment: ClbP whole cell activity (inhibition) assay, fluorogenic substrate. Format: cell-based, E. coli. As to the method: Whole Cell Activity Assay
(§1) 1) E. coli ClbP+ were taken from a frozen stock and streaked onto BHI plates. They were grown aerobically at 37° C. overnight in the incubator.
(§2) 1) A single colony was selected from the plate and inoculated into 30 mL LB in a 50 mL conical vial eight times (240 mL total). The bacteria were grown aerobically overnight (16-20 h) at 37° C. on a nutator with rocking.
1) The saturated overnight culture was centrifuged to create a firm pellet (3,200 g, 10 min, 4° C.). In a biosafety cabinet, the supernatant was removed and then the pellet was resuspended in 30 mL sterile PBS.
2) The bacteria were centrifuged again (3,200 g, 10 min, 4° C.). The supernatant was removed, and the pellet was resuspended in sterile PBS buffer (6 mL) in each of the 8 tubes. This fivefold concentrated bacterial solution was the working solution.
3) The bacterial working solution (192 μL) was mixed with inhibitor (6 μL, final concentration was 300, 100, 33.3, 11.1, 3.7, 1.2, 0.4, or 0 μM). Fluorogenic substrate (2 μL, final concentration 5 μM) was immediately added across the plate to initiate the reaction. As a control, each plate contained Compound No. III in this dose response curve. The bacterial concentration was fivefold concentrated compared to the original saturated overnight culture. Carryover from DMSO was 4% (v/v). All compounds were tested in singlicate.
4) The plate was loaded into a spectrophotometer preheated to 37° C. The fluorescence was recorded every 2 min for 46 min. The excitation wavelength was 360 nm (20 nm bandwidth), the emission wavelength was 460 nm (20 nm bandwidth), the optics position was bottom, the gain was 65, the light source was a tungsten bulb, and the read speed was normal.
5) The linear portion of the fluorescence increase was 10-30 min. The rate of fluorescence increase (A.U./min) for each well in an inhibitor series was normalized to the 0 μM inhibitor condition. The normalized activity as a function of inhibitor concentration was then fit to a three parameter IC50 curve in Graphpad Prism.
(§3) “A” indicates an IC50 value less than 100 μM, “B” indicates an IC50 between 100 and 300 μM, “C” indicates an IC50 above 300 μM.

In experiment [2] the target is T1, ClbP. Nature of the experiment: ClbP cell lysate activity (inhibition) assay, fluorogenic substrate. Format: biochemical. The note with it: ClbP Lysate Inhibition Assay: IC50, E. coli ClbP+ lysozyme-EDTA lysates, 5 μM fluorogenic substrate, inhibitor 0-300 μM, 37° C., singlicate. As to the method:
Cell Lysate Activity Assay
as §1, §2
1) The saturated overnight culture was centrifuged to create a firm pellet (3,200 g, 10 min, 4° C.). The supernatant was removed and then the pellet was resuspended in 30 mL sterile PBS.
2) The bacteria were centrifuged again (3,200 g, 10 min, 4° C.). The supernatant was removed, and the pellet was resuspended in sterile PBS buffer (3 mL) in each 8 tubes to make a tenfold concentrated bacterial solution.
3) A lysozyme-EDTA (LE) solution was made in ddH2O (0.05 mg/mL lysozyme, 0.25 M EDTA).
4) For each of the eight tubes, LE solution (3 mL) was mixed with concentrated bacterial solution (3 mL). This mixture was incubated at 37° C. for 30 min to generate the lysates.
5) The lysates (192 μL) were mixed with inhibitor (6 μL, final concentration was 300, 100, 33.3, 11.1, 3.7, 1.2, 0.4, or 0 μM). Fluorogenic substrate (2 μL, final concentration 5 μM) was immediately added across the plate to initiate the reaction. As a control, each plate contained Compound No. III in this dose response curve. The final concentration of bacterial lysates was fivefold concentrated compared to the original saturated overnight culture. Carryover from DMSO was 4% (v/v). All compounds were tested in singlicate.
6) The plate was loaded into a spectrophotometer preheated to 37° C. The fluorescence was recorded every 2 min for 46 min. The excitation wavelength was 360 nm (20 nm bandwidth), the emission wavelength was 460 nm (20 nm bandwidth), the optics position was bottom, the gain was 65, the light source was a tungsten bulb, and the read speed was normal.
7) The linear portion of the fluorescence increase was 0-20 min. The rate of fluorescence increase (A.U./min) for each well in an inhibitor series was normalized to the 0 μM inhibitor condition. The normalized activity as a function of inhibitor concentration was then fit to a three parameter IC50 curve in Graphpad Prism.
as §3

In experiment [3] the target is Full-length WT ClbP (Escherichia coli, UniProt Q0P7K6). In words: ClbP molecular (purified protein) enzymatic inhibition assay, fluorogenic substrate. Format: biochemical, E. coli. As to the method: ClbP Molecular (Purified Protein) Assay
1) Full-length WT ClbP was thawed on ice. A diluted enzyme solution (2 nM) was made by mixing 3.57 μL of enzyme with 20 mL of reaction buffer (50 mM Tris pH 8.0, 200 mM NaCl, 0.02% (w/v) n-dodecyl-b-D-maltoside (DDM)).
2) In a 96 well plate, the diluted protein solution (73.5 μL) was mixed with inhibitor (1.5 μL, of varying concentrations, see below) and preincubated for 15 min at room temperature. Then, reaction buffer (75 μL) containing 10 μM fluorogenic substrate was added to initiate the reaction. After addition of substrate, the final concentrations were 1 nM full-length WT ClbP, 5 μM fluorogenic substrate in 50 mM Tris pH 8.0, 200 mM NaCl, 0.02% (w/v) DDM, with either 0, 0.14, 0.41, 1.2, 3.7, 11, 33, or 100 μM inhibitor. For all conditions, the DMSO carryover was 2% (v/v) at the preincubation stage and 1% in the reaction stage. Compound No. III was always present as a control in each plate, and all compounds were tested in singlicate. In previous assays, the Km of the fluorogenic substrate was determined to be approximately 5 μM.
3) Immediately after addition of substrate to enzyme, the plate was transferred into a spectrophotometer held at room temperature. The fluorescence was recorded every 1.5 min for 15 min. The excitation wavelength was 360 nm (20 nm bandwidth), the emission wavelength was 440 nm (20 nm bandwidth), the optics position was bottom, the gain was extended, the light source was a xenon flash lamp, and the read speed was normal.
4) The linear portion of the fluorescence increase is at least from 0-6 min, so this time regime is used. The rate of fluorescence increase (A.U./min) for each well in an inhibitor series was normalized to the 0 μM inhibitor condition. The normalized activity as a function of inhibitor concentration was then fit to a three parameter IC50 curve in Graphpad Prism.
as §3

Broadly, the IC50 is the concentration that inhibits the measured activity by half. Higher therefore signals weaker potency in that assay.

With `NC(=O)C[C@@H](NC(=O)/C=C/CC1CCCCCC1)C(=O)NCCc1ccc(O)cc1` [Compound CCXL], the IC50 in experiment [1], in experiment [2] and in experiment [3] was less than 100 µM in each case.
With `CCCCCCCC(=O)N[C@H](CC(N)=O)C(=O)NCCc1nnn[nH]1` [Compound CCXXXIII], the IC50 in experiment [1], in experiment [2] and in experiment [3] was less than 100 µM throughout.
In the case of `CCCCCCCCCC(=O)N[C@H](CC(N)=O)C(=O)NCCc1ccccc1` [Compound CCLXVI], the IC50 in experiment [1], in experiment [2] and in experiment [3] was less than 100 µM each time.
As for `CCCCCCCC(=O)N[C@H]1CC(=O)NC1(O)C(=O)NCc1ccccc1` (stereo partly drawn) [Compound CCLXXXIX], the IC50 is 100 to 300 µM in experiment [1], 100 to 300 µM in experiment [2] and less than 100 µM in experiment [3].
In the case of `CCCCCCCC(=O)N[C@H](CC(N)=O)C(=O)NCCc1c(F)cc(O)cc1F` [Compound CCCVI], the IC50 in experiment [1], in experiment [2] and in experiment [3] was less than 100 µM each time.
As to `CCCCCCCC(=O)N[C@H](CC(N)=O)C(=O)NCCc1ccc(C(=O)O)cc1` [Compound CXCVIII], the IC50 in experiment [1] is less than 100 µM; in experiment [2], 100 to 300 µM; in experiment [3], less than 100 µM.
As to `CCCCCCCCCCCC(=O)N[C@H](CC(N)=O)C(=O)NCCc1ccccn1` [Compound CCCX], the results for the IC50 in experiment [1], in experiment [2] and in experiment [3] were more than 300 µM, less than 100 µM and less than 100 µM, respectively.
On to `CCCCCCCC(=O)N[C@](C)(CC(N)=O)C(=O)NCCc1ccc(O)cc1` [Compound CCCXI], for which the IC50 in experiment [1], in experiment [2] and in experiment [3] was more than 300 µM in each case.
On to `CCCCCCCC(=O)N[C@H](CC(N)=O)C(=O)NCCc1ccccc1O` [Compound CCXXIV], for which the IC50 in experiment [1], in experiment [2] and in experiment [3] was less than 100 µM throughout.
`NC(=O)C[C@@H](NC(=O)CCCC1CCCCC1)C(=O)NCCc1ccc(O)cc1` [Compound CCXXII]: the IC50 in experiment [1], in experiment [2] and in experiment [3] was less than 100 µM throughout.
Turning to `CCCCCCCC(=O)N[C@H](CC(N)=O)C(=O)C(=O)NCc1ccccc1` [Compound CCLXXXIII], the IC50 in experiment [1], in experiment [2] and in experiment [3] was less than 100 µM each time.
In the case of `NC(=O)C[C@@H](NC(=O)CCCc1ccc(O)cc1)C(=O)NCCc1ccc(O)cc1` [Compound CCLIII], the IC50 in experiment [1], in experiment [2] and in experiment [3] was less than 100 µM throughout.
As to `NC(=O)C[C@@H](NC(=O)CCCC1CCCCC1)C(=O)NCCc1ccccn1` [Compound CCCIII], the IC50 in experiment [1], in experiment [2] and in experiment [3] was less than 100 µM in each case.
Turning to `CCCCCCCC(=O)N[C@H](CC(N)=O)C(=O)NC[C@H](C)c1ccccc1` [Compound CCCI], the IC50 in experiment [1], in experiment [2] and in experiment [3] was less than 100 µM in each case.
On to `O=C(/C=C/CC1CCCC1)N[C@H](CC(=O)NO)C(=O)NCCc1ccc(O)cc1` [Compound CCXCVIII], for which the IC50 in experiment [1], in experiment [2] and in experiment [3] was less than 100 µM each time.
On to `CCCCCCCCCC(=O)N[C@@H]1CC(=O)NC1(O)C(=O)NCc1ccccc1` (stereo partly drawn) [Compound […]], for which the IC50 in experiment [1] was 100 to 300 µM; in experiment [2], 100 to 300 µM; in experiment [3], less than 100 µM.
Regarding `NC(=O)C[C@@H](NC(=O)CCCCCCC(=O)O)C(=O)NCCc1ccccc1` [Compound CCLXIV], the values for the IC50 in experiment [1], in experiment [2] and in experiment [3] were more than 300 µM, more than 300 µM and 100 to 300 µM, respectively.
`CCCCCCCC(=O)N[C@H](CC(N)=O)C(=O)NCCc1c[nH]cn1` [Compound CCXXVII]: the IC50 in experiment [1], in experiment [2] and in experiment [3] was less than 100 µM each time.
Take `NC(=O)C[C@@H](NC(=O)CCC1CCCC1)C(=O)NCCc1ccccc1` [Compound CCL]: the IC50 in experiment [1], in experiment [2] and in experiment [3] was less than 100 µM in each case.
As to `O=C(C[C@@H](NC(=O)CCC1CCCCC1)C(=O)NCCc1ccc(O)cc1)NO` [Compound CCXCV], the IC50 in experiment [1], in experiment [2] and in experiment [3] was less than 100 µM each time.
On to `CCCCCCCC(N[C@H](CC(N)=O)C(=O)NCCc1ccccc1)C(F)(F)F` (stereo partly drawn) [Compound CCXIV], for which the IC50 in experiment [1] is more than 300 µM; in experiment [2] it was more than 300 µM; in experiment [3], less than 100 µM.
As for `CCCCCCCC(=O)N[C@H](CC(N)=O)c1ncnn1Cc1ccccc1` [Compound CCCXII], the concentration for half-maximal inhibition (IC50) in experiment [1], in experiment [2] and in experiment [3] was more than 300 µM in each case.
Consider `CCCCCCCC(=O)N[C@@H]1CC(=O)NC1(O)C(=O)NCCCC` (stereo partly drawn) [Compound CCXC], for which the IC50 in experiment [1], in experiment [2] and in experiment [3] was less than 100 µM throughout.
With `CCCCCCC(F)(F)C(=O)N[C@H](CC(N)=O)C(=O)NCCc1ccc(O)cc1` [Compound CCXXXVI], the IC50 in experiment [1] is more than 300 µM; in experiment [2], less than 100 µM; in experiment [3], less than 100 µM.
With `CCCCCCCC(=O)N[C@H](CC(N)=O)c1nnn(C(C)(C)C)n1` [Compound XIX], the IC50 in experiment [1] was more than 300 µM; in experiment [2], more than 300 µM; in experiment [3] it was 100 to 300 µM.
Consider `NC(=O)C[C@@H](NC(=O)CCCc1ccncc1)C(=O)NCCc1ccc(O)cc1` [Compound CCLI], for which the concentration for half-maximal inhibition (IC50) in experiment [1] is less than 100 µM; in experiment [2] it was 100 to 300 µM; in experiment [3] it was less than 100 µM.
As to `CCCCCCCC(=O)N[C@H](CC(N)=O)[C@H](O)CCCc1ccccc1` [Compound CXCII], the half-inhibitory concentration (IC50) is more than 300 µM in experiment [1], less than 100 µM in experiment [2] and 100 to 300 µM in experiment [3].
As to `CCCCCCCNC(=O)[C@H](CC(N)=O)NC(=O)Oc1ccccc1` [Compound CCX], the figures for the IC50 in experiment [1], in experiment [2] and in experiment [3] were more than 300 µM, more than 300 µM and 100 to 300 µM, respectively.
